Consider 14 molecules from article PMC11316643 (European journal of medicinal chemistry, 2024).

Test [1] concerns the target human kappa opioid receptor (KOR) (Homo sapiens, UniProt P41145). Briefly: 35S-GTPγS binding assay of KOR G protein activation in CHO-hKOR membranes. It is filed as biochemical. (Binding of GTPγS marks nucleotide exchange on a G protein.)
The target in test [2] is human KOR (Homo sapiens, UniProt P41145). Briefly: Bias analysis by operational model.

Like-named read-outs stand apart in the source and are kept apart here.

Sequence of human kappa opioid receptor (KOR) (P41145 whole entry): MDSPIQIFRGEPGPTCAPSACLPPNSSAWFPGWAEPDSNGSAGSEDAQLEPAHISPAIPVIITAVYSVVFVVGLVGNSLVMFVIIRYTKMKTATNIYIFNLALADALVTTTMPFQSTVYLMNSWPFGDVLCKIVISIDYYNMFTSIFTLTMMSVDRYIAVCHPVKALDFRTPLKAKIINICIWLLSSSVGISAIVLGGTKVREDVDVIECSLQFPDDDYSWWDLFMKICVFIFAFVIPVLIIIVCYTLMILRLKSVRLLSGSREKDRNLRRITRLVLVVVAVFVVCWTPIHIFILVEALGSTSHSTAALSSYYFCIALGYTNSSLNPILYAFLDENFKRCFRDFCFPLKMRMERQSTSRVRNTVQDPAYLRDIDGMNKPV
Sequence of human KOR (P41145 whole entry): as above
Sequence of human KOR (P32121 whole entry partner): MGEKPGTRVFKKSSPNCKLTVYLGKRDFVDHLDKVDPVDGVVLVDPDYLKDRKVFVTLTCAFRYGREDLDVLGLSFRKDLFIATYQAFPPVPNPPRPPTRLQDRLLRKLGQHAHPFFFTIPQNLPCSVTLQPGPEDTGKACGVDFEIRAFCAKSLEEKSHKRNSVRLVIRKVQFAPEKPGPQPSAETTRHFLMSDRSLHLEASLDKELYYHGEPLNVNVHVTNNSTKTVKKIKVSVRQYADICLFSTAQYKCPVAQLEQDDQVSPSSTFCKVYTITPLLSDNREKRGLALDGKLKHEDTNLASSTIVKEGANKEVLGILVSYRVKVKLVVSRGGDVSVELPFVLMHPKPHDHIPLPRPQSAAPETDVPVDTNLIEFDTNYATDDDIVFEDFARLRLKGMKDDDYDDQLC

On to `Cc1ccc(CCc2nnc(-c3ccccn3)n2CC2CC2)cc1C(F)(F)F` [2k, 2-(4-(Cyclopropylmethyl)-5-(4-methyl-3-(trifluoromethyl)phenethyl)-4H-1,2,4-triazol-3-yl)pyridine], for which, in test [1], the “fold decrease in potency on cyclopropane substitution” value was 10 fold. On to `C(#Cc1nnc(-c2ccccn2)n1Cc1ccco1)c1ccccc1` [5b, 2-(4-(Furan-2-ylmethyl)-5-(phenylethynyl)-4H-1,2,4-triazol-3-yl)pyridine], for which the “KOR agonist activity (GTPγS) in words” value in test [1] (SAR discussion) was “dramatic loss in potency”.

Turning to `Cc1ccc(CCc2nnc(-c3ccccn3)n2-c2ccccc2)cc1C(F)(F)F` [2g, 2-(5-(4-Methyl-3-(trifluoromethyl)phenethyl)-4-phenyl-4H-1,2,4-triazol-3-yl)pyridine], the “KOR agonist activity (GTPγS) in words” value in test [1] is “inactive”. On the same count and under the same terms, next, `C(=C/c1nnc(-c2ccccn2)n1Cc1ccco1)/c1ccccc1` [5c, (Z)-2-(4-(Furan-2-ylmethyl)-5-styryl-4H-1,2,4-triazol-3-yl)pyridine]: “dramatic loss in potency”. For `Cc1ccc(CCc2nnc(-c3ccccn3)n2Cc2cccs2)cc1C(F)(F)F` [2d, 2-(5-(4-Methyl-3-(trifluoromethyl)phenethyl)-4-(thiophen-2-ylmethyl)-4H-1,2,4-triazol-3-yl)pyridine], the “bias (bias factor, G protein over βarrestin2)” value in test [2] is 38. In the case of `Brc1ccccc1CCc1nnc(-c2ccccn2)n1Cc1cccs1` [4g, 2-(5-(2-Bromophenethyl)-4-(thiophen-2-ylmethyl)-4H-1,2,4-triazol-3-yl)pyridine], the “fold decrease in potency of ortho bromo vs para-bromo (4e)” value in test [1] is listed as “ca. 10 fold”.

Regarding `Cc1ccc(CCc2nnc(-c3cccnc3)n2Cc2cccs2)cc1C(F)(F)F` [3b, 3-(5-(4-Methyl-3-(trifluoromethyl)phenethyl)-4-(thiophen-2-ylmethyl)-4H-1,2,4-triazol-3-yl)pyridine], the “KOR agonist activity (GTPγS) in words” value in test [1] is given as “significant loss of activity”. Turning to `Cc1ccc(/C=C/c2nnc(-c3ccccn3)n2Cc2ccco2)cc1C(F)(F)F` [5d, (E)-2-(4-(Furan-2-ylmethyl)-5-(4-methyl-3-(trifluoromethyl)styryl)-4H-1,2,4-triazol-3-yl)pyridine], the “KOR agonist activity (GTPγS) in words” value in test [1] was “dramatic loss in potency”. With `Cc1ccc(CCc2nnc(-c3ccccn3)n2Cc2ccncc2)cc1C(F)(F)F` [2j, 2-(5-(4-Methyl-3-(trifluoromethyl)phenethyl)-4-(pyridin-4-ylmethyl)-4H-1,2,4-triazol-3-yl)pyridine], the “KOR agonist activity (GTPγS) in words” value in test [1] (SAR discussion) was “inactive”.

Turning to `Cc1ccc(CCc2nnc(-c3ccncc3)n2Cc2cccs2)cc1C(F)(F)F` [3c, 4-(5-(4-Methyl-3-(trifluoromethyl)phenethyl)-4-(thiophen-2-ylmethyl)-4H-1,2,4-triazol-3-yl)pyridine], the “KOR agonist activity (GTPγS) in words” value in test [1] (SAR discussion) is given as “significant loss of activity”.

Regarding `c1ccc(-c2nnc(C3CCc4ccccc4C3)n2Cc2cccs2)nc1` (centres unmarked) [5a, 2-(5-(1,2,3,4-Tetrahydronaphthalen-2-yl)-4-(thiophen-2-ylmethyl)-4H-1,2,4-triazol-3-yl)pyridine], the “KOR agonist activity (GTPγS) in words” value in test [1] (SAR discussion) is “detrimental to activity”. As to `c1ccc(-c2nnc(-c3ccccn3)n2Cc2cccs2)cc1` [5j, 2-(5-Phenyl-4-(thiophen-2-ylmethyl)-4H-1,2,4-triazol-3-yl)pyridine], in test [1], the “KOR agonist activity (GTPγS) in words” value was “loss of activity”. Same read-out and setting: to `Cc1ccc(CCc2nnc(-c3ccccc3)n2Cc2cccs2)cc1C(F)(F)F` [3a, 3-(4-Methyl-3-(trifluoromethyl)phenethyl)-5-phenyl-4-(thiophen-2-ylmethyl)-4H-1,2,4-triazole] belongs “significant loss of activity”. In the case of `FC(Cc1ccccc1)c1nnc(-c2ccccn2)n1Cc1ccco1` (centres unmarked) [5g, 2-(5-(1-Fluoro-2-phenylethyl)-4-(furan-2-ylmethyl)-4H-1,2,4-triazol-3-yl)pyridine], the “fold loss of potency compared to compound 4a” value in test [1] stood at 3 fold.
